Test results as given in US10251854B2, “S-(carboxymethyl)-cysteine pharmaceutical compound and preparation method and use thereof” (Guangzhou Baiyunshan Pharmaceutical Holdings Co., Ltd. …, priority 2013, dated 2019).
Counter-ions that a name gives are not always drawn. Like-named read-outs stand apart in the source and are kept apart here.

What was measured:
[1] = pH value of 1% solution/suspension by pH meter; format: physicochemical; conditions: n=6
From the text: (§1) In a preferred embodiment of the present invention, the S-(carboxymethyl)-L-cysteine ammonium salt monohydrate crystalline compound is a soluble double salt formed by the acidity of the carboxyl thereof and the alkalinity of the aqueous ammonia. […] In addition, the medicine, after being absorbed by the body, can be hydrolysed into S-(carboxymethyl)-L-cysteine and ammonium chloride with the effect of gastric acid, which can not only reduce the irritation of S-(carboxymethyl)-L-cysteine to the gastrointestinal tract, but also neutralize the excessive gastric acid. After the S-(carboxymethyl)-L-cysteine ammonium salt monohydrate crystal is hydrolysed, the S-(carboxymethyl)-L-cysteine in the body continues giving play to pharmacological effects thereof. At the same time, the ammonium chloride obtained from hydrolysis has chemical irritation to the mucous membrane, which can reflectively increase the amount of sputum to easily remove the sputum, and is conducive to removing a small amount of sputum which is difficult to be coughed out, thereby enhancing the sputum-resolving effect of the S-(carboxymethyl)-L-cysteine, and improving the curative effect. The S-(carboxymethyl)-L-cysteine ammonium salt is safe, has small side effect, and can be used for patients suffering from chronic obstructive pulmonary disease and the like to take for a long time.

rat COPD model [2] = experiment: Rat COPD model: antioxidation indexes (GSH, SOD); format: in vivo; conditions: x ± SD
Protocol: (§2) 1.1 Preparation of Rat COPD Models
(§3) A method of establishing a rat COPD model by fumigation plus endotoxin lipopolysaccharide (LPS) endotracheal drop, which is commonly used at home and abroad at present was adopted. The period is 3 months (90 days). Specific method: on the 1st, the 15th, the 29th, the 43rd, the 57th, the 71st and the 85th days of the test, the rats were anesthetized with ethylether, the roots of tongues of the rats were pulled out, and LPS (200 ug/200 ul) was dripped through tracheas by bend gavage needle heads. The rats of the normal group were dripped with physiological saline of equal amount by the same method, and weren't fumigated. The rats of the other five groups were fumigated in a self-made fumigation bin. One side of the fumigation bin was externally connected with a negative pressure pump, and the top thereof was connected with a port for inserting cigarettes. With the negative press pump turned on, the cigarettes were lit, and the smoke of the cigarettes was absorbed into the fumigation bin. In order to prevent the animals from death caused by anoxia, 12 cigarettes were lit every time, and the lid of the fumigation bin was opened 20 min after fumigation for letting in fresh air. The operation was performed 1 h/3 times/day, with the LPS (200 ug/200 ul) being dripped through the tracheas by bend gavage needle heads.
(§4) 1.2 Pharmacological Intervention
(§5) The test was 90 days long. The pharmacological intervention was started from the 15th day, the rats of the positive group were perfused with carbocisteine, the rats of the low, medium and high test groups were perfused with different doses of test medicines, and the rats of the model group and the normal group were perfused with physiological saline of equal amount.
(§6) 1.3 Indexes Determination
(§7) Blood was taken from the orbit of each rat on the second day after the test was over, serum was separated, a complete stomach was cut and washed, lung tissue was preserved, the stomach and the right upper lung were left for pathobiology test, after the rest of the lung was subjected to lung tissue homogenate, the indexes of oxidization and antioxidation, the contents of lipid peroxide (LPO), malondialdehyde (MDA) and reduced glutathione (GSH), the activity of superoxide dismutase (SOD) and the concentration of inflammatory medium TNF-α, IL-8 and IL-6 were detected.

[3] = system: patients suffering from COPD; conditions: 142 patients; 1500 mg/d, 12 months; cited from earlier work
Water solubility = format: physicochemical
From the text: as §1

[4] = system: patients suffering from COPD; conditions: 1500 mg/d, 12 months; cited from earlier work
gastric mucosa of rats = experiment: Rat COPD model: pathological changes of stomachs; format: in vivo; conditions: perfused from the 15th day of the 90 day test
Protocol: A method of establishing a rat COPD model by fumigation plus endotoxin lipopolysaccharide (LPS) endotracheal drop, which is commonly used at home and abroad at present was adopted. The period is 3 months (90 days). Specific method: on the 1st, the 15th, the 29th, the 43rd, the 57th, the 71st and the 85th days of the test, the rats were anesthetized with ethylether, the roots of tongues of the rats were pulled out, and LPS (200 ug/200 ul) was dripped through tracheas by bend gavage needle heads. The rats of the normal group were dripped with physiological saline of equal amount by the same method, and weren't fumigated. The rats of the other five groups were fumigated in a self-made fumigation bin. […]
as §7

rat COPD model [5] = experiment: Rat COPD model: inflammation indexes (TNF-α, IL-8, IL-6); format: in vivo; conditions: x ± SD
Protocol: as §2, §3, §4, §5, §6, §7

rat COPD model [6] = experiment: Rat COPD model: oxidization indexes (LPO, MDA); format: in vivo; conditions: x ± SD
Protocol: as §2, §3, §4, §5, §6, §7

[7] = system: chronic obstructive pulmonary disease; conditions: 1500 mg/d, 12 months; cited from earlier work
[8] = Storage at room temperature (character, moisture absorption); format: physicochemical; conditions: stored for a period of time at room temperature
From the text: The S-(carboxymethyl)-L-cysteine ammonium salt monohydrate crystals of the present invention have a relatively uniform particle size distribution.

[9] = Solubility in several solvents (25° C.); format: physicochemical

Which pH ([1]; 1% suspension per Chinese Pharmacopoeia (2010 Edition)) does the source give for `N[C@@H](CSCC(=O)O)C(=O)O` [carbocisteine, S-(carboxymethyl)-L-cysteine, reference compound] here?
Its pH is 2.93±0.20.

And the “GSH Lung tissue” value (rat COPD model [2]; positive group)?
The value was 107.26 ± 23.52 µmol/L.

What about the “GSH Serum” value (rat COPD model [2]; positive group) of the same compound?
Its value is 132.31 ± 24.04 µmol/L.

What about the “SOD Lung tissue” value (rat COPD model [2]; positive group) of the same compound?
The value was 62.28 ± 15.12 U/mL.

And the “SOD Serum” value (rat COPD model [2]; positive group)?
The value was 96.16 ± 23.03 U/mL.

What about the “prevention of acute COPD” value [3] of the same compound?
Its value is “prevented from acute COPD”.

What about the water solubility (Water solubility) of the same compound?
Its water solubility is “poorer water solubility”.

What about the “frequency of catching colds and acute exacerbation of COPD” value [4] of the same compound?
The value was “the frequency of catching colds is reduced and the acute exacerbation of COPD is relieved”.

What about the “Pathological changes of stomachs / irritation to the gastrointestinal tract” value (gastric mucosa of rats) of the same compound?
Its value is “mild irritations such as mild hyperaemia and edema, and larger inflammatory cell infiltration”.

What about the “Pathological changes of stomachs / irritation to the gastrointestinal tract” value (gastric mucosa of rats; listed as positive group) of the same compound?
Its value is “mild edema and hyperemia and serious inflammatory cell infiltration in the gastric mucosa layers”.

And the “IL-6 Lung tissue” value (rat COPD model [5]; positive group)?
The value was 14.24 ± 6.26 pg/mL.

What about the “IL-6 Serum” value (rat COPD model [5]; positive group) of the same compound?
Its value is 8.13 ± 2.87 pg/mL.

And the “IL-8 Lung tissue” value (rat COPD model [5]; positive group)?
Its value is 10.91 ± 2.30 pg/mL.

And the “IL-8 Serum” value (rat COPD model [5]; positive group)?
The value was 7.87 ± 3.08 pg/mL.

What about the “TNF-α Lung tissue” value (rat COPD model [5]; positive group) of the same compound?
The value was 25.17 ± 8.28 pg/mL.

And the “TNF-α Serum” value (rat COPD model [5]; positive group)?
The value was 18.37 ± 4.55 pg/mL.

What about the “LPO Lung tissue” value (rat COPD model [6]; positive group) of the same compound?
Its value is 17.44 ± 2.43 nmol/mL.

What about the “LPO Serum” value (rat COPD model [6]; positive group) of the same compound?
Its value is 5.12 ± 1.09 nmol/mL.

And the “MDA Lung tissue” value (rat COPD model [6]; positive group)?
Its value is 4.76 ± 0.70 µmol/mL.

And the “MDA Serum” value (rat COPD model [6]; positive group)?
The value was 7.34 ± 2.19 µmol/mL.

And the “annual acute morbidity per person reduced by” value [7]?
Its value is 24.5%.

What does the source list for `N[C@@H](CSCC(=O)O)C(=O)O` [L-ammonium, S-(carboxymethyl)-L-cysteine ammonium salt monohydrate]?
pH value ([1]; 1% compound, pH meter): 6.60±0.36; GSH Lung tissue (rat COPD model [2]; high dose group): 141.69 ± 28.40 µmol/L; GSH Serum (rat COPD model [2]; high dose group): 232.93 ± 40.49 µmol/L; SOD Lung tissue (rat COPD model [2]; high dose group): 77.56 ± 18.09 U/mL; SOD Serum (rat COPD model [2]; high dose group): 140.69 ± 32.13 U/mL; GSH Lung tissue (rat COPD model [2]; low dose group): 113.59 ± 24.32 µmol/L; GSH Serum (rat COPD model [2]; low dose group): 140.64 ± 19.66 µmol/L; SOD Lung tissue (rat COPD model [2]; low dose group): 60.38 ± 16.04 U/mL; SOD Serum (rat COPD model [2]; low dose group): 90.80 ± 15.13 U/mL; GSH Lung tissue (rat COPD model [2]; medium dose group): 124.19 ± 30.78 µmol/L; GSH Serum (rat COPD model [2]; medium dose group): 175.61 ± 31.11 µmol/L; SOD Lung tissue (rat COPD model [2]; medium dose group): 70.71 ± 11.16 U/mL; SOD Serum (rat COPD model [2]; medium dose group): 102.98 ± 23.26 U/mL; water solubility (Water solubility; listed as S-(carboxymethyl)-L-cysteine ammonium salt monohydrate crystal, ammonium salt monohydrate): extremely easily soluble in water; IL-6 Lung tissue (rat COPD model [5]; high dose group): 9.28 ± 4.49 pg/mL; IL-6 Serum (rat COPD model [5]; high dose group): 5.83 ± 1.51 pg/mL; IL-8 Lung tissue (rat COPD model [5]; high dose group): 8.17 ± 1.06 pg/mL; IL-8 Serum (rat COPD model [5]; high dose group): 5.36 ± 1.51 pg/mL; TNF-α Lung tissue (rat COPD model [5]; high dose group): 15.15 ± 4.20 pg/mL; TNF-α Serum (rat COPD model [5]; high dose group): 13.02 ± 5.32 pg/mL; IL-6 Lung tissue (rat COPD model [5]; low dose group): 14.72 ± 5.51 pg/mL; IL-6 Serum (rat COPD model [5]; low dose group): 7.02 ± 3.30 pg/mL; IL-8 Lung tissue (rat COPD model [5]; low dose group): 9.97 ± 1.24 pg/mL; IL-8 Serum (rat COPD model [5]; low dose group): 7.90 ± 2.16 pg/mL; TNF-α Lung tissue (rat COPD model [5]; low dose group): 20.60 ± 9.60 pg/mL; TNF-α Serum (rat COPD model [5]; low dose group): 17.98 ± 3.94 pg/mL; IL-6 Lung tissue (rat COPD model [5]; medium dose group): 12.91 ± 2.47 pg/mL; IL-6 Serum (rat COPD model [5]; medium dose group): 6.24 ± 2.12 pg/mL; IL-8 Lung tissue (rat COPD model [5]; medium dose group): 8.66 ± 2.54 pg/mL; IL-8 Serum (rat COPD model [5]; medium dose group): 6.30 ± 2.17 pg/mL; TNF-α Lung tissue (rat COPD model [5]; medium dose group): 19.98 ± 8.78 pg/mL; TNF-α Serum (rat COPD model [5]; medium dose group): 15.11 ± 4.38 pg/mL; LPO Lung tissue (rat COPD model [6]; high dose group): 13.51 ± 1.66 nmol/mL; LPO Serum (rat COPD model [6]; high dose group): 3.22 ± 0.85 nmol/mL; MDA Lung tissue (rat COPD model [6]; high dose group): 3.68 ± 0.87 µmol/mL; MDA Serum (rat COPD model [6]; high dose group): 5.88 ± 1.26 µmol/mL; LPO Lung tissue (rat COPD model [6]; low dose group): 16.24 ± 2.32 nmol/mL; LPO Serum (rat COPD model [6]; low dose group): 4.75 ± 1.30 nmol/mL; MDA Lung tissue (rat COPD model [6]; low dose group): 4.03 ± 1.27 µmol/mL; MDA Serum (rat COPD model [6]; low dose group): 7.28 ± 1.33 µmol/mL; LPO Lung tissue (rat COPD model [6]; medium dose group): 15.58 ± 2.73 nmol/mL; LPO Serum (rat COPD model [6]; medium dose group): 3.77 ± 1.15 nmol/mL; MDA Lung tissue (rat COPD model [6]; medium dose group): 3.88 ± 0.59 µmol/mL; MDA Serum (rat COPD model [6]; medium dose group): 6.20 ± 3.23 µmol/mL; absorption of moisture [8]: insusceptible to absorption of moisture; character changes after storage [8]: no obvious character changes; Solubility ([9]; Absolute ethyl alcohol): Very slightly soluble; Solubility ([9]; Acetone): Very slightly soluble; Solubility ([9]; Acetonitrile): Very slightly soluble; Solubility ([9]; Isopropanol): Very slightly soluble; Solubility ([9]; Methanol): Very slightly soluble; Solubility ([9]; N,N-Dimethylformamide): Very slightly soluble
